Experiments:
FRDA fibroblasts GM03816 = experiment: Intracellular ATP content in FRDA fibroblasts; format: cell-based, human; details: 100 μM, 3 days
Description: FRDA lymphoblasts and fibroblasts were washed twice with ice-cold Dulbecco's Phosphate Buffered Saline (DPBS) and lysed in CelLytic M buffer (Sigma-Aldrich) supplemented with Complete protease inhibitor cocktail, EDTA-free (Roche). Aconitase activity was measured spectrophotometrically at 340 nm by a coupled reaction of aconitase and isocitrate dehydrogenase. The assay reactions contained […] of cell extract in 50 mM Hepes pH 7.4, 1 mM sodium citrate, 0.6 mM MnCl2, 0.2 mM NADP^+ and 2 U/ml isocitrate dehydrogenase (Sigma-Aldrich). Citrate synthase activity was assessed using […] of cell extract with the Citrate Synthase Assay Kit (Sigma-Aldrich CS0720). […] The intracellular ATP content was measured in black microtiter plates using […] of cell extract with the ATP Bioluminescence Assay Kit CLS II (Roche) according to the manufacturer's protocol.
FRDA fibroblasts GM03816 were treated for 3 days with 100 μM Formula IV. Cells were then fixed, stained with anti-frataxin antibody or anti-Bcl2, as a control, and analyzed by flow cytometry. […] Total cell extracts were resolved on SDS-PAGE and analyzed with anti-frataxin antibody, or anti-tubulin, as a loading control. […] ATP levels were quantitated as described previously.

[1] = tested on: FRDA lymphoblasts GM16798; experiment: Intracellular ATP content in FRDA lymphoblasts; format: cell-based, human; details: 50 μM, 6 days
Description: (§1) FRDA lymphoblasts and fibroblasts were washed twice with ice-cold Dulbecco's Phosphate Buffered Saline (DPBS) and lysed in CelLytic M buffer (Sigma-Aldrich) supplemented with Complete protease inhibitor cocktail, EDTA-free (Roche). Aconitase activity was measured spectrophotometrically at 340 nm by a coupled reaction of aconitase and isocitrate dehydrogenase. The assay reactions contained […] of cell extract in 50 mM Hepes pH 7.4, 1 mM sodium citrate, 0.6 mM MnCl2, 0.2 mM NADP^+ and 2 U/ml isocitrate dehydrogenase (Sigma-Aldrich). Citrate synthase activity was assessed using […] of cell extract with the Citrate Synthase Assay Kit (Sigma-Aldrich CS0720). The aconitase activities were normalized with respect to citrate synthase ratios; one milliunit of enzyme was defined as the amount of protein that converted 1 nmol of NADP^+ in 1 min at 25° C. The intracellular ATP content was measured in black microtiter plates using […] of cell extract with the ATP Bioluminescence Assay Kit CLS II (Roche) according to the manufacturer's protocol.
(§2) FRDA lymphoblasts GM16798 were left untreated or treated for 6 days with 50 μM Formula IV. Their genetically-related healthy control GM16241 lymphoblasts were left untreated. […] Aconitase activity and ATP levels were measured as described previously.

FRDA cells = experiment: Tolerability by FRDA cells; format: cell-based, human; details: among the different ubiquitin-competing molecules
frataxin [2] = molecular target: T1, frataxin (Homo sapiens, UniProt Q16595); experiment: Frataxin accumulation in FRDA fibroblasts (FACS, SDS-PAGE/western blot); format: cell-based; parameters: HEK-293 Flp-In cells stably transfected with frataxin^1-210; expressed in transfected cells; details: FRDA fibroblasts GM03816; 100 μM; 3 days
T1 sequence (Q16595 42-210): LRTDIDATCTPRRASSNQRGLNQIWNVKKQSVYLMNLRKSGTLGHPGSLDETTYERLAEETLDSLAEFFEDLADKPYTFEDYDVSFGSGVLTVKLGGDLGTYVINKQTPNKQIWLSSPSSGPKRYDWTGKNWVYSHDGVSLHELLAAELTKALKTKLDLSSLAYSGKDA
Description: Human embryonic kidney HEK-293 cells and Hela cells were maintained in DMEM supplemented with 10% FBS. HEK-293 were transfected with the calcium/phosphate precipitation method, using 20 μg total DNA (10 μg pIRES-frataxin and 10 μg HA-Ub, or corresponding empty vectors) on 10 cm dishes. Hela cells were transfected using Lipofectamine 2000 reagents (Invitrogen), according to manufacturer's instructions. Where indicated, the day after transfection, cells were treated for 16 h with 10 μM proteasome inhibitors, MG132 or Lactacystin, or 50 ng/ml DUB inhibitor Ubiquitin-Aldehyde. […]
(§3) Cell extracts were prepared in modified RIPA buffer (10 mM sodium phosphate pH7.2, 150 mM NaCl, 1% Na deoxycholate, 0.1% SDS, 1% Np40, 2 mM EDTA) or IP buffer (50 mM Tris-HCl, pH 7.5, 150 mM NaCl, 1% Nonidet P-40, 5 mM EDTA, 5 mM EGTA) supplemented with Complete protease inhibitor cocktail and 2 mM N-Ethylmaleimide (NEM). For immunoblotting, 100 μg of protein extract were separated on 12% SDS-PAGE, blotted onto nitrocellulose membrane and detected with specific antibodies. […] Immunocomplexes were then resolved and analysed by SDS-PAGE. […]
Cells were collected after the indicated treatments and fixed for 20 minutes in 4% paraformaldehyde at room temperature. […] After washing 3 times with PBS cells were analyzed by flow cytometry (Becton Dickinson). […]

frataxin [3] = molecular target: T1, frataxin; experiment: Frataxin accumulation in HEK-293 Flp-In cells stably expressing frataxin 1-210 (WB, FACS); format: cell-based; parameters: HEK-293 Flp-In cells stably transfected with frataxin^1-210; expressed in transfected cells; details: HEK-293 Flp-In frataxin 1-210; 100 μM; 18 hours
Description: (§4) Human embryonic kidney HEK-293 cells and Hela cells were maintained in DMEM supplemented with 10% FBS. HEK-293 were transfected with the calcium/phosphate precipitation method, using 20 μg total DNA (10 μg pIRES-frataxin and 10 μg HA-Ub, or corresponding empty vectors) on 10 cm dishes. Hela cells were transfected using Lipofectamine 2000 reagents (Invitrogen), according to manufacturer's instructions. Where indicated, the day after transfection, cells were treated for 16 h with 10 μM proteasome inhibitors, MG132 or Lactacystin, or 50 ng/ml DUB inhibitor Ubiquitin-Aldehyde. Flp-In-HEK-293 cells (Invitrogen) are HEK-293 variants allowing the stable and isogenic integration and expression of a transfected gene. Flp-In-HEK-293 cells were maintained in DMEM supplemented with 10% FBS and transfected with the calcium/phosphate precipitation method. Briefly, cells were plated on 10 cm dishes and transfected with 10 μg total DNA. The HEK-293 clone stably expressing frataxin^1-210 was previously described (4). The HEK-293 clone stably expressing frataxin^K147R was obtained from cultures in selection medium containing 100 μg/ml hygromycin B (Invitrogen). FRDA lymphoblasts GM15850, GM16798 and GM16241, as well control lymphoblasts GM15851, GM16241 and GM16215, were maintained in RPMI supplemented with 15% FBS. Treatments with specific ubiquitin-competing molecules were performed in 20% FBS containing medium. FRDA fibroblasts GM03816 were maintained in DMEM supplemented with 15% FBS.
Cell extracts were prepared in modified RIPA buffer (10 mM sodium phosphate pH7.2, 150 mM NaCl, 1% Na deoxycholate, 0.1% SDS, 1% Np40, 2 mM EDTA) or IP buffer (50 mM Tris-HCl, pH 7.5, 150 mM NaCl, 1% Nonidet P-40, 5 mM EDTA, 5 mM EGTA) supplemented with Complete protease inhibitor cocktail and 2 mM N-Ethylmaleimide (NEM). For immunoblotting, 100 μg of protein extract were separated on 12% SDS-PAGE, blotted onto nitrocellulose membrane and detected with specific antibodies. For in vivo detection of ubiquitin-conjugates […] and 50 ng/ml Ubiquitin-Aldehyde were added to the lysis buffer. For immunoprecipitation, 5 mg of total protein extract prepared as above were incubated for 1-2 h at 4° C. with specific antibodies, previously conjugated to Protein G-sepharose (GE Healthcare). Immunocomplexes were then resolved and analysed by SDS-PAGE. […] Densitometric analysis was performed using ImageJ software.
Cells were collected after the indicated treatments and fixed for 20 minutes in 4% paraformaldehyde at room temperature. Cells were then permeabilized and blocked in a blocking solution (3% FBS in PBS) containing 0.2% Triton, for 1 hour at room temperature. Cells were then incubated overnight at 4° C. with anti-frataxin monoclonal antibody (MAB-10485, Immunological Science) or anti-Bcl2 monoclonal antibody (sc-509, Santa Cruz) diluted 1:200 in blocking solution. Cells were then washed 3 times in PBS and incubated for 1 hour at room temperature with FITC-conjugated goat anti-mouse IgG/IgM (BD Bioscience Pharmingen) diluted 1:200 in blocking solution. After washing 3 times with PBS cells were analyzed by flow cytometry (Becton Dickinson).
HEK-293 Flp-In cells stably transfected with frataxin^1-210 were treated for the indicated times with 10 μM MG132. Total cell extracts were blotted as in A. One representative experiment out of four performed with similar results is shown in FIG. 18.
Formula III induces frataxin precursor accumulation. HEK-293 Flp-In cells stably expressing frataxin^1-210 were treated for the indicated days with 20 μM of Formula III or 10 μM MG132. Total cell extracts were resolved on SDS-PAGE and analyzed with anti-frataxin antibody, or anti-tubulin, as a loading control.
Formula III induces mature frataxin accumulation. HEK-293 Flp-In cells stably expressing frataxin^1-210 were treated and analyzed as in B. One representative experiment out of three performed with similar results is shown FIG. 5C. […]

frataxin [4] = molecular target: T1, frataxin; experiment: Frataxin accumulation in FRDA lymphoblasts (FACS, SDS-PAGE/western blot); format: cell-based; details: 50 μM, 6 days
Description: as §4, with “The HEK-293 clone stably expressing frataxin^K147R was obtained from cultures in selection medium containing 100 μg/ml hygromycin B (Invitrogen). FRDA lymphoblasts GM15850, GM16798 and GM16241, as well control lymphoblasts GM15851, GM16241 and GM16215, were maintained in RPMI supplemented with 15% FBS. Treatments with specific ubiquitin-competing molecules were performed in 20% FBS containing medium. FRDA fibroblasts GM03816 were maintained in DMEM supplemented with 15% FBS.” left out
as §3
Cells were collected after the indicated treatments and fixed for 20 minutes in 4% paraformaldehyde at room temperature. […] After washing 3 times with PBS cells were analyzed by flow cytometry (Becton Dickinson).
FRDA lymphoblasts GM15850 were cultured for 6 days in the presence of 50 μM Formula IV or Formula VI. Cells were then fixed, stained with anti-frataxin antibody or anti-Bcl2, as a control, and analyzed by flow cytometry. […]

aconitase = experiment: Aconitase assay in FRDA lymphoblasts; format: cell-based, human; details: FRDA lymphoblasts GM16798; 50 μM; 6 days
Description: as §1, §2

In the case of `O=[N+]([O-])c1cccc(/C=N/NS(=O)(=O)c2ccc(Cl)cc2)c1O` [Formula IV], the ATP levels (FRDA fibroblasts GM03816) is reported as “Rescue of ATP levels can also be achieved”, the ATP levels [1] is reported as “significantly boost” and the “tolerability by FRDA cells” value (FRDA cells) is reported as “best tolerated”. The “frataxin accumulation by FACS and SDS-PAGE/western blot” value (frataxin [2]) was “frataxin accumulation can be detected as early as 3 days of treatment”, the “frataxin accumulation by WB and FACS analysis” value (frataxin [3]) was “effective in inducing frataxin accumulation” and the “accumulation of mature frataxin by SDS-PAGE and western blot” value (frataxin [4]; FRDA lymphoblasts GM15850, GM16798 and GM16214) was “accumulation of mature frataxin can be detected”. The “frataxin accumulation by FACS analysis” value (frataxin [4]; FRDA lymphoblasts GM15850) was “discrete frataxin accumulation detectable in all cells” and the aconitase activity (aconitase) was “significantly boost”.
